Source: US9006487B2, “Amine-containing lipids and uses thereof” (Massachusetts Institute of Technology, priority 2005, dated 2015)
Values joined by “and” are separate entries in the source; they are usually repeats but may differ in a detail not shown here. Identical values can stand only once.

System: cos-7 cells
Assay: DNA transfection: luciferase expression relative to Lipofectamine 2000
Assay type: cell-based
Conditions: 300 ng Luciferase DNA per well, luciferase assay after 48 hours
Protocol: 14,000 cos-7 cells (ATCC, Manassas, Va.) were seeded into each well of a solid white or clear 96 well plate (Corning-Costar, Kennebunk, Me.) and allowed to attached overnight in growth medium, composed of: 500 ml phenol red minus DMEM, 50 ml heat inactivated FBS, 5 ml penicillin/streptomycin (Invitrogen, Carlsbad, Calif.).
A small liquot of lipid was tranferred to an Eppendorf tube. Based on the mass of the lipid in the tube, sterile 25 mM sodium acetate buffer was added to each tube to yield a concentration of 60 mg/ml. The resulting mixture was vortexed for approximately 20 minutes until the lipid was fully dissolved. DNA was prepared based on 300 ng DNA per well of a 96-well plate. 291 μg of Lc DNA was dissolved in 9210 μl of 25 mM sodium acetate buffer. Aliquots of 30 μl of DNA solution were added to each well expect for the last column which was reserved for the Lipo2000 standard. For the last column of the plate, 61 μg of DNA was added to 1940 μl Optimem. 150 μl of media/Optimem was added to each well of plates. 50 μl of lipid solution was aliquoted into wells of robot plate. The following amounts were aliquoted to obtain the correct ratios of DNA to lipid:
In quadruplicate, 30 μl of lipid was aliquoted onto DNA in four rows for each ratio. For the Lipo2000 control (2.5 w/w ratio to DNA), 152.5 μg of Lipo sample was aliquoted into 1847.5 μl of Optimem. 30 μl of this solution was aliquoted onto DNA in the Optimem in the last columns of each plate. The plates were incubated for 15-20 minutes, and then 36.5 μl of lipid+DNA complexes was transferred into 150 μl of media/Optimem, then add to cells. The media was aspirated off the cells, and 105 μl of the lipid/DNA/media/Optimem solution was added to the cells. The luciferase assay was performed after 48 hours.
Luminescence was analyzed using bright-glo assay kits (Promega). Briefly, 100 μl of bright-glo solution was added to each well of the microtiter plate containing media and cells. Luminescence was measured using a Mithras Luminometer (Berthold, Oak Ridge, Tenn.). In some cases, a neutral density filter (Chroma, Brattleboro, Vt.) was used to prevent saturation of the luminometer. A standard curve for Luciferase was generated by titration of Luciferase enzyme (Promega) into growth media in white microtiter plates. Luciferase in ng per well are calculated for each of the lipids at 2.5 w/w, 5 w/w, 10 w/w, 15 w/w, 20 w/w, and 25 w/w lipid to DNA based on the standard curve.
The table below summarizes the data as a % of the luciferase activity obtained from the use of Lipofectamine 2000. The table indicates the best lipids for transfection.

| SMILES | Luciferase expression as a percentage of that achieved using Lipofectamine 2000 (lipid/DNA 2.5 w/w) | Luciferase expression as a percentage of that achieved using Lipofectamine 2000 (lipid/DNA 5 w/w) | Luciferase expression as a percentage of that achieved using Lipofectamine 2000 (lipid/DNA 10 w/w) | Luciferase expression as a percentage of that achieved using Lipofectamine 2000 (lipid/DNA 15 w/w) | Luciferase expression as a percentage of that achieved using Lipofectamine 2000 (lipid/DNA 20 w/w) | Luciferase expression as a percentage of that achieved using Lipofectamine 2000 (lipid/DNA 25 w/w) |
| --- | --- | --- | --- | --- | --- | --- |
| CCCCCCCCCCOC(=O)CCN(CCC(=O)OCCCCCCCCCC)C(CC)(CO)CO [LB34] | 0.1% | 0.1% | 0.2% | 0.4% | 0.1% | 0.1% |
| CCCCCCCCCCOC(=O)CCN(CCCCCCO)CCC(=O)OCCCCCCCCCC [LB36] | 0.1% | 0.1% | 0.1% | 0.1% | 0.1% | 0.1% |
| CCCCCCCCCCOC(=O)CCN(CCC(=O)OCCCCCCCCCC)C1CCC(O)CC1 (centres unmarked) [LB38] | 0.7% | 0.8% | 0.7% | 0.8% | 0.7% | 0.8% |
| CCCCCCCCCCOC(=O)CCN(C)CCN(C)CCC(=O)OCCCCCCCCCC [LB60] | 0.4% | 0.4% | 0.4% | 0.4% | 0.4% | 0.4% |
| CCCCCCCCCCOC(=O)CCN(CC)CCN(CC)CCC(=O)OCCCCCCCCCC [LB61] | 0.1% | 0.1% | 0.1% | 0.1% | 0.1% | 0.1% |
| CCCCCCCCCCOC(=O)CCN(CCN(CCC(=O)OCCCCCCCCCC)C(C)C)C(C)C [LB62] | 0.1% | 0.1% | 0.1% | 0.1% | 0.1% | 0.1% |
| CCCCCCCCCCOC(=O)CCN(C)CCCN(C)CCC(=O)OCCCCCCCCCC [LB63] | 0.1% | 0.2% and 0.1% | 0.1% | 1.0% and 0.1% | 0.1% | 0.2% and 0.1% |
| CCCCCCCCCCOC(=O)CCN(CC)CCCN(CC)CCC(=O)OCCCCCCCCCC [LB64] | 0.1% | 0.1% | 0.2% and 0.1% | 0.1% | 0.1% | 0.2% and 0.1% |
| CCCCCCCCCCOC(=O)CCN1CCCN(CCC(=O)OCCCCCCCCCC)CC1 [LB70] | 0.1% | 0.1% | 0.1% | 0.1% | 0.1% | 0.1% |
| CCCCCCCCCCOC(=O)CCN(CCC(=O)OCCCCCCCCCC)CCN(CC)CC [LB75] | 0.1% | 0.1% | 0.1% | 0.1% | 0.1% | 0.1% |
| CCCCCCCCCCOC(=O)CCN(CCC(=O)OCCCCCCCCCC)CCN1CCCC1 [LB76] | 0.1% | 0.1% | 0.1% | 0.1% | 0.1% | 0.1% |
| CCCCCCCCCCOC(=O)CCN(CCC(=O)OCCCCCCCCCC)CCC1CCCN1C (centres unmarked) [LB77] | 0.1% | 0.1% | 0.1% | 0.2% | 0.1% | 0.3% |
| CCCCCCCCCCOC(=O)CCN(CCC(=O)OCCCCCCCCCC)C(C)CN(C)C (centres unmarked) [LB79] | 0.1% | 0.1% | 0.1% | 0.1% | 0.1% | 0.1% |
| CCCCCCCCCCOC(=O)CCN(CCCN(C)C)CCC(=O)OCCCCCCCCCC [LB80] | 0.7% | 0.8% | 0.1% | 0.2% | 1.0% | 1.5% |
| CCCCCCCCCCOC(=O)CCN(CCCN(CC)CC)CCC(=O)OCCCCCCCCCC [LB81] | 0.4% | 0.4% | 0.2% | 0.3% | 0.4% | 0.5% |
| CCCCCCCCCCCCOC(=O)CCN(CCCCO)CCC(=O)OCCCCCCCCCCCC [LD28] | – | – | 1.7% | 8.5% | – | – |
| CCCCCCCCCCCCOC(=O)CCN(CCN(CCC(=O)OCCCCCCCCCCCC)C(C)C)C(C)C [LD62] | 0.4% | 0.4% | 0.4% | 0.4% | 0.4% | 0.5% |
| CCCCCCCCCCCCOC(=O)CCN(C)CCCN(C)CCC(=O)OCCCCCCCCCCCC [LD63] | 0.7% | 0.8% | 0.3% | 0.3% | 0.4% | 0.6% |
| CCCCCCCCCCCCOC(=O)CCN1CCCN(CCC(=O)OCCCCCCCCCCCC)CC1 [LD70] | 0.1% | 0.1% | 0.6% | 0.6% | 0.6% | 0.6% |
